# Active and inactive are the calls of the source. No cut-off for these calls is given here.
# Target: T1, Xanthine dehydrogenase/oxidase (Bos taurus, UniProt P80457)
# Test: Inhibition of bovine XO assessed as inhibition of uric acid formation using xanthine as substrate at 25 uM preincubated with enzyme for 10 mins followed by substrate addition and measured for 2 mins by spectrophotometry
# Details: cattle, time 12 min
# T1 sequence (P80457 whole entry): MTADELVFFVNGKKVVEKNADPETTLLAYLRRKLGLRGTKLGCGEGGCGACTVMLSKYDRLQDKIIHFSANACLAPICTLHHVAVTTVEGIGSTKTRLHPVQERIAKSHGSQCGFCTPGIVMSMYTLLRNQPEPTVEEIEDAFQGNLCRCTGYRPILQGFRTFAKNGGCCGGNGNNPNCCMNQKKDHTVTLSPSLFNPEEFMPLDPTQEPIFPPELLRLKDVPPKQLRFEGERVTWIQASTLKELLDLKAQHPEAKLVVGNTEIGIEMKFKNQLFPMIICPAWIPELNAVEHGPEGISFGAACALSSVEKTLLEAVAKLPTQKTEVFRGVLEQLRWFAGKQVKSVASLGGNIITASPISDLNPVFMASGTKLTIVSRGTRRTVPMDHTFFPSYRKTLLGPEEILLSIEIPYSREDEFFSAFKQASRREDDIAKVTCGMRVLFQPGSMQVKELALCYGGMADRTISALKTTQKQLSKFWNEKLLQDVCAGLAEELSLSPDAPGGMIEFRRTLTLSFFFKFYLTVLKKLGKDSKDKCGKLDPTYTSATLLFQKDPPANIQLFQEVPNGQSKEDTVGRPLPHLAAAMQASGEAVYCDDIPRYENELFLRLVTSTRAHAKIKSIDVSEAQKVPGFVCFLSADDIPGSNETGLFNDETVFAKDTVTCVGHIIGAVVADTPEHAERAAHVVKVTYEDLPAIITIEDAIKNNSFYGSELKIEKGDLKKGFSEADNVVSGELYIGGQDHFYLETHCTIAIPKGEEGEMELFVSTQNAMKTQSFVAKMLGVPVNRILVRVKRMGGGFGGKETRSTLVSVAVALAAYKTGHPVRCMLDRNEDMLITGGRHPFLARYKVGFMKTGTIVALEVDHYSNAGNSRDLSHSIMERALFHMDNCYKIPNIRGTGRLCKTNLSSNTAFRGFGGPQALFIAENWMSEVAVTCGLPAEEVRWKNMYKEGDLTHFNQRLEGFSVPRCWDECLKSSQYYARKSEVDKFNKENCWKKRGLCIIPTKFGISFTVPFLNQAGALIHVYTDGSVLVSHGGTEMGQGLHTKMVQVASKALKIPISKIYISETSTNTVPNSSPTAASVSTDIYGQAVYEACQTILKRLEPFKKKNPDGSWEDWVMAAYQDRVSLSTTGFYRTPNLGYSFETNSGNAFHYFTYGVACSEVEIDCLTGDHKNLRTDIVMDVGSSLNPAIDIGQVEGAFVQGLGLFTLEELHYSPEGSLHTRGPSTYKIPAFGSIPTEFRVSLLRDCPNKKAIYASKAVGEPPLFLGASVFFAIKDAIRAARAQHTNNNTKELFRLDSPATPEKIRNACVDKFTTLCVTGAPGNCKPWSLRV
row,Compound,inhibition at 25 µM [%]
1,CC(C)n1cc(COc2ccccc2C=O)nn1,< 50
2,COc1ccccc1Cn1cc(COc2ccccc2[N+](=O)[O-])nn1,< 50
3,COc1ccccc1Cn1cc(COc2ccccc2C#N)nn1,< 50
4,O=Cc1ccccc1OCc1cn(Cc2ccccc2)nn1,< 50
5,COc1cccc(Cn2cc(COc3ccccc3[N+](=O)[O-])nn2)c1,< 50
6,COc1cccc(Cn2cc(COc3cc(F)ccc3C=O)nn2)c1,< 50
7,COc1cccc(Cn2cc(COc3ccccc3C#N)nn2)c1,< 50

# Results, then the molecule that gave them:
row,inhibition at 25 µM [%],Compound
1,< 50,CC(C)CCn1cc(COc2cc(F)ccc2C=O)nn1
2,< 50,CCCn1cc(COc2ccccc2C=O)nn1
3,< 50,CCn1cc(COc2ccccc2C=O)nn1

# Test system: Rattus norvegicus
# Test: In vivo Hypouricemic activity against potassium oxonate-induced hyperuricemia rat model assessed as reduction in serum uric acid production at 20 mg/kg, po measured after 2 hrs
# Format: functional, organism-based
# Details: not given
row,Compound,Activity
1,COc1cccc(Cn2cc(COc3ccc(F)cc3C=O)nn2)c1,Active

# Test system: Rattus norvegicus
# Test: In vivo Hypouricemic activity against potassium oxonate-induced hyperuricemia rat model assessed as reduction in AUC of serum uric acid level at 20 mg/kg, po measured after 0.5 to 8 hrs
# Format: functional, organism-based
# Details: time 0.5-8 hrs
row,Compound,Activity
1,COc1cccc(Cn2cc(COc3ccc(F)cc3C=O)nn2)c1,Active

# Target: T1, Xanthine dehydrogenase/oxidase
# Test: Inhibition of bovine XO assessed as inhibition of uric acid formation using xanthine as substrate preincubated with enzyme for 10 mins followed by substrate addition and measured for 2 mins by spectrophotometry
# Details: not given
row,Compound,IC50 [nM]
1,Cc1cccc(Cn2cc(COc3ccccc3C=O)nn2)c1,1110
2,N#Cc1cccc(Cn2cc(COc3ccccc3C=O)nn2)c1,1710
3,N#Cc1cccc(Cn2cc(COc3ccc(F)cc3C=O)nn2)c1,2540
4,COc1ccccc1Cn1cc(COc2ccccc2C=O)nn1,1450
5,N#Cc1ccccc1Cn1cc(COc2ccc(F)cc2C=O)nn1,4150
6,Cc1ccccc1Cn1cc(COc2ccccc2C=O)nn1,1630
7,COc1ccccc1Cn1cc(COc2cc(F)ccc2C=O)nn1,2070
8,CC(C)Cn1cc(COc2ccccc2C=O)nn1,21100
9,CCC(C)n1cc(COc2ccccc2C=O)nn1 (configuration not stated),21800
10,O=Cc1ccccc1OCc1cn(Cc2ccccc2)nn1,> 25000
11,COc1cccc(Cn2cc(COc3ccccc3C=O)nn2)c1,1020
12,N#Cc1ccccc1Cn1cc(COc2ccccc2C=O)nn1,2220

# The next lines start with the values.
row,IC50 [nM],Compound
1,9360,CCC(C)n1cc(COc2ccc(F)cc2C=O)nn1 (configuration not stated)
2,4010,Cc1ccccc1Cn1cc(COc2ccc(F)cc2C=O)nn1
3,5240,CCCn1cc(COc2ccc(F)cc2C=O)nn1
4,14300,CC(C)Cn1cc(COc2ccc(F)cc2C=O)nn1
5,2120,CC(C)CCn1cc(COc2ccc(F)cc2C=O)nn1
6,16000,CC(C)CCn1cc(COc2ccccc2C=O)nn1
7,13500,CCCCn1cc(COc2ccccc2C=O)nn1
8,1180,Cc1cccc(Cn2cc(COc3ccc(F)cc3C=O)nn2)c1
9,940,COc1ccccc1Cn1cc(COc2ccc(F)cc2C=O)nn1
10,18100,CCCCCn1cc(COc2ccccc2C=O)nn1
11,3460,CCn1cc(COc2ccc(F)cc2C=O)nn1
12,2560,CC(C)n1cc(COc2ccc(F)cc2C=O)nn1
13,3590,CCCCn1cc(COc2cc(F)ccc2C=O)nn1
14,2490,CCCCn1cc(COc2ccc(F)cc2C=O)nn1
15,2990,CCCCCn1cc(COc2ccc(F)cc2C=O)nn1
16,700,COc1cccc(Cn2cc(COc3ccc(F)cc3C=O)nn2)c1

# Test system: Rattus norvegicus
# Test: In vivo Hypouricemic activity against potassium oxonate-induced hyperuricemia rat model assessed as reduction in serum uric acid production at 8 mg/kg, po measured after 2 hrs
# Format: functional, organism-based
# Details: not given
row,Compound,Activity
1,Oc1ncnc2[nH]ncc12,Active

# Target: T1, Xanthine dehydrogenase/oxidase
# Test: Potency index, ratio of allopurinol IC50 to test compound IC50 for bovine XO using xanthine as substrate by spectrophotometry
# Details: cattle
row,Compound,Ratio IC50
1,COc1cccc(Cn2cc(COc3ccc(F)cc3C=O)nn2)c1,14
